Source: patent US20240301409A1, “Chemically Modified Small Activating RNA” (RACTIGEN THERAPEUTICS, priority 2021, published 2024)

Tested on: J82 cells
Assay: Cellular proliferation assay (CCK8) in J82 cells, combined with Mitomycin C or valrubicin
Format: cell-based, human
Experimental: J82 cells were transfected with RAG1-40-31 at concentrations of 0.1, 0.5, 1, 5, 10, 25 and 50 nM for 24 hours, and then Mitomycin C at concentrations of 1, 10, 100, 1000 and 10000 nM was added. The combined treatment was carried out with concentrations in pairs. After treatment, the proliferation of cells was detected using CCK8 kit. FIGS. 14A-14B show the relative proliferation proportion of J82 cells after the combined treatment with chemically modified saRNA RAG1-40-31 and valrubicin. […] Control and DMSO are the blank transfection control and the solvent for dilution control, respectively.
J82 cells were transfected with RAG1-40-31 at concentrations of 0.1, 0.5, 1, 5, 10, 25 and 50 nM for 24 hours, and then valrubicin at concentrations of 1, 10, 100, 1000 and 10000 nM was added. The combined treatment was carried out with concentrations in pairs. After treatment, the cellular proliferation was detected by CCK8 kit. FIGS. 15A-15B show the relative proliferation proportion of T24 cells after the combined treatment with chemically modified saRNA RAG1-40-31 and Mitomycin C. […] Control and DMSO are the blank transfection control and the solvent for dilution control, respectively.
Human bladder cancer cells Ku-7-LG (ATCC), J82 (ATCC) and T24 (ATCC) were cultured in McCoy medium (Gibco) comprising 10% calf serum (Sigma-Aldrich) and 1% penicillin/Streptomycin (Gibco). Cells were cultured at 37° C. under 5% CO2. Ku-7-LG, J82 and T24 cells were plated into 12-well plates at 10×10^4 cells per well, transfected with the small RNA at a concentration of 10 nM (unless otherwise specified) for three days, using RNAiMax (Invitrogen, Carlsbad, CA) according to the manufacturer's instructions. Two replicate wells were set for each treatment.
Cells were plated in a 96-well plate at 2˜4×10^3 cells/well, cultured overnight, and transfected with the oligonucleotide duplexes. Three days after transfection, CCK8 (Dojindo) was used to detect cellular proliferation following manufacturer's instructions. The experimental steps are briefly described as follows: 10 μL of CCK8 solution was added to each well, incubated at 37° C. for 1 hour, and then the absorbance at 450 nm was measured using a microplate reader.
In this example, chemically modified saRNA RAG1-40-31 was used in combination with clinical chemical agents to evaluate the suppressing effect of the combined agents on cancer cells.

## RAG1-40-31: saRNA duplex: sense fCfCAACUCAUUCUCCAAG*U*C (SEQ ID NO 16); antisense U*A*fCfUfUGGAGAAfUGAGfUfUGG*fC*A (SEQ ID NO 12) (sense CCAACUCAUUCUCCAAGUC; antisense UACUUGGAGAAUGAGUUGGCA; 2'-F and phosphorothioate modifications; modified_base (1)..(2) (1,2)=2′-fluoro; modified_base (17)..(19) (17,18,19)=phosphorothioate (PS) backbone modification; modified_base (2)..(21) (2,3,19,20,21)=phosphorothioate (PS) backbone modification; modified_base (3)..(20) (3,4,5,12,16,17,20)=2′-fluoro)
RAG1-40-31 0.1 nM + MMC 10000 nM
  Relative proliferation proportion of J82 cells: 1.5%
RAG1-40-31 0.1 nM + valrubicin 1 nM
  Relative proliferation proportion of J82 cells: 71.0%
RAG1-40-31 0.1 nM + valrubicin 10 nM
  Relative proliferation proportion of J82 cells: 58.2%
RAG1-40-31 0.1 nM + valrubicin 100 nM
  Relative proliferation proportion of J82 cells: 73.2%
RAG1-40-31 0.1 nM + valrubicin 1000 nM
  Relative proliferation proportion of J82 cells: 26.9%
RAG1-40-31 0.1 nM + valrubicin 10000 nM
  Relative proliferation proportion of J82 cells: 9.9%
RAG1-40-31 0.1 nM, Control (no MMC)
  Relative proliferation proportion of J82 cells: 97.9%
RAG1-40-31 0.1 nM, Control (no valrubicin)
  Relative proliferation proportion of J82 cells: 85.1%
RAG1-40-31 0.5 nM + MMC 1 nM
  Relative proliferation proportion of J82 cells: 70.1%
RAG1-40-31 0.5 nM + MMC 10 nM
  Relative proliferation proportion of J82 cells: 69.3%
RAG1-40-31 0.5 nM + MMC 100 nM
  Relative proliferation proportion of J82 cells: 34.9%
RAG1-40-31 0.5 nM + MMC 1000 nM
  Relative proliferation proportion of J82 cells: 10.8%
RAG1-40-31 0.5 nM + MMC 10000 nM
  Relative proliferation proportion of J82 cells: 0.9%
RAG1-40-31 0.5 nM + valrubicin 1 nM
  Relative proliferation proportion of J82 cells: 62.4%
RAG1-40-31 0.5 nM + valrubicin 10 nM
  Relative proliferation proportion of J82 cells: 54.1%
RAG1-40-31 0.5 nM + valrubicin 100 nM
  Relative proliferation proportion of J82 cells: 72.8%
RAG1-40-31 0.5 nM + valrubicin 1000 nM
  Relative proliferation proportion of J82 cells: 24.4%
RAG1-40-31 0.5 nM + valrubicin 10000 nM
  Relative proliferation proportion of J82 cells: 7.7%
RAG1-40-31 0.5 nM, Control (no MMC)
  Relative proliferation proportion of J82 cells: 89.9%
RAG1-40-31 0.5 nM, Control (no valrubicin)
  Relative proliferation proportion of J82 cells: 77.8%
RAG1-40-31 1 nM + MMC 1 nM
  Relative proliferation proportion of J82 cells: 55.8%
RAG1-40-31 1 nM + MMC 10 nM
  Relative proliferation proportion of J82 cells: 57.2%
RAG1-40-31 1 nM + MMC 100 nM
  Relative proliferation proportion of J82 cells: 30.1%
RAG1-40-31 1 nM + MMC 1000 nM
  Relative proliferation proportion of J82 cells: 9.3%
RAG1-40-31 1 nM + MMC 10000 nM
  Relative proliferation proportion of J82 cells: 1.4%
RAG1-40-31 1 nM + valrubicin 1 nM
  Relative proliferation proportion of J82 cells: 59.8%
RAG1-40-31 1 nM + valrubicin 10 nM
  Relative proliferation proportion of J82 cells: 51.6%
RAG1-40-31 1 nM + valrubicin 100 nM
  Relative proliferation proportion of J82 cells: 54.4%
RAG1-40-31 1 nM + valrubicin 1000 nM
  Relative proliferation proportion of J82 cells: 22.7%
RAG1-40-31 1 nM + valrubicin 10000 nM
  Relative proliferation proportion of J82 cells: 7.5%
RAG1-40-31 1 nM, Control (no MMC)
  Relative proliferation proportion of J82 cells: 79.8%
RAG1-40-31 1 nM, Control (no valrubicin)
  Relative proliferation proportion of J82 cells: 73.9%
RAG1-40-31 5 nM + MMC 1 nM
  Relative proliferation proportion of J82 cells: 42.8%
RAG1-40-31 5 nM + MMC 10 nM
  Relative proliferation proportion of J82 cells: 40.8%
RAG1-40-31 5 nM + MMC 100 nM
  Relative proliferation proportion of J82 cells: 26.2%
RAG1-40-31 5 nM + MMC 1000 nM
  Relative proliferation proportion of J82 cells: 7.2%
RAG1-40-31 5 nM + MMC 10000 nM
  Relative proliferation proportion of J82 cells: 1.2%
RAG1-40-31 5 nM + valrubicin 1 nM
  Relative proliferation proportion of J82 cells: 37.9%
RAG1-40-31 5 nM + valrubicin 10 nM
  Relative proliferation proportion of J82 cells: 46.6%
RAG1-40-31 5 nM + valrubicin 100 nM
  Relative proliferation proportion of J82 cells: 50.9%
RAG1-40-31 5 nM + valrubicin 1000 nM
  Relative proliferation proportion of J82 cells: 22.6%
RAG1-40-31 5 nM + valrubicin 10000 nM
  Relative proliferation proportion of J82 cells: 5.5%
RAG1-40-31 5 nM, Control (no MMC)
  Relative proliferation proportion of J82 cells: 59.3%
RAG1-40-31 5 nM, Control (no valrubicin)
  Relative proliferation proportion of J82 cells: 58.4%
RAG1-40-31 10 nM + MMC 1 nM
  Relative proliferation proportion of J82 cells: 37.0%
RAG1-40-31 10 nM + MMC 10 nM
  Relative proliferation proportion of J82 cells: 37.7%
RAG1-40-31 10 nM + MMC 100 nM
  Relative proliferation proportion of J82 cells: 22.2%
RAG1-40-31 10 nM + MMC 1000 nM
  Relative proliferation proportion of J82 cells: 6.9%
RAG1-40-31 10 nM + MMC 10000 nM
  Relative proliferation proportion of J82 cells: 1.0%
RAG1-40-31 10 nM + valrubicin 1 nM
  Relative proliferation proportion of J82 cells: 33.1%
RAG1-40-31 10 nM + valrubicin 10 nM
  Relative proliferation proportion of J82 cells: 37.1%
RAG1-40-31 10 nM + valrubicin 100 nM
  Relative proliferation proportion of J82 cells: 40.4%
RAG1-40-31 10 nM + valrubicin 1000 nM
  Relative proliferation proportion of J82 cells: 20.3%
RAG1-40-31 10 nM + valrubicin 10000 nM
  Relative proliferation proportion of J82 cells: 4.3%
RAG1-40-31 10 nM, Control (no MMC)
  Relative proliferation proportion of J82 cells: 48.9%
RAG1-40-31 10 nM, Control (no valrubicin)
  Relative proliferation proportion of J82 cells: 50.6%
RAG1-40-31 25 nM + MMC 1 nM
  Relative proliferation proportion of J82 cells: 20.8%
RAG1-40-31 25 nM + MMC 10 nM
  Relative proliferation proportion of J82 cells: 25.7%
RAG1-40-31 25 nM + MMC 100 nM
  Relative proliferation proportion of J82 cells: 17.2%
RAG1-40-31 25 nM + MMC 1000 nM
  Relative proliferation proportion of J82 cells: 5.0%
RAG1-40-31 25 nM + MMC 10000 nM
  Relative proliferation proportion of J82 cells: 0.4%
RAG1-40-31 25 nM + valrubicin 1 nM
  Relative proliferation proportion of J82 cells: 26.1%
RAG1-40-31 25 nM + valrubicin 10 nM
  Relative proliferation proportion of J82 cells: 23.9%
RAG1-40-31 25 nM + valrubicin 100 nM
  Relative proliferation proportion of J82 cells: 26.3%
RAG1-40-31 25 nM + valrubicin 1000 nM
  Relative proliferation proportion of J82 cells: 13.3%
RAG1-40-31 25 nM + valrubicin 10000 nM
  Relative proliferation proportion of J82 cells: 2.7%
RAG1-40-31 25 nM, Control (no MMC)
  Relative proliferation proportion of J82 cells: 38.4%
RAG1-40-31 25 nM, Control (no valrubicin)
  Relative proliferation proportion of J82 cells: 45.6%
RAG1-40-31 50 nM + MMC 1 nM
  Relative proliferation proportion of J82 cells: 25.9%
RAG1-40-31 50 nM + MMC 10 nM
  Relative proliferation proportion of J82 cells: 25.8%
RAG1-40-31 50 nM + MMC 100 nM
  Relative proliferation proportion of J82 cells: 13.9%
RAG1-40-31 50 nM + MMC 1000 nM
  Relative proliferation proportion of J82 cells: 3.4%
RAG1-40-31 50 nM + MMC 10000 nM
  Relative proliferation proportion of J82 cells: 0.6%
RAG1-40-31 50 nM + valrubicin 1 nM
  Relative proliferation proportion of J82 cells: 19.7%
RAG1-40-31 50 nM + valrubicin 10 nM
  Relative proliferation proportion of J82 cells: 21.4%
RAG1-40-31 50 nM + valrubicin 100 nM
  Relative proliferation proportion of J82 cells: 23.9%
RAG1-40-31 50 nM + valrubicin 1000 nM
  Relative proliferation proportion of J82 cells: 14.8%
RAG1-40-31 50 nM + valrubicin 10000 nM
  Relative proliferation proportion of J82 cells: 3.2%
RAG1-40-31 50 nM, Control (no MMC)
  Relative proliferation proportion of J82 cells: 34.8%
RAG1-40-31 50 nM, Control (no valrubicin)
  Relative proliferation proportion of J82 cells: 33.5%
